EC50 and Emax data for four compounds are collected here from patent US20230265151A1, “GIP/GLP1 CO-AGONIST COMPOUNDS” (priority 2020, published 2023).

Like-named read-outs stand apart in the source and are kept apart here. *1 amine or outer side, *2 acyl side, *3 side chain or, on linkers, in order; H or OH if unused. Where a SMILES comes first, the peptide text is derived from it. Side-chain parts run from the residue outwards. [ ]: non-standard residue; d: D form. The star is where a group is joined. αMePhe(2-F) = C[C@](N)(Cc1ccccc1F)C(=O)O; γGlu = O=C(O)[C@H](CCC(=O)[*:2])N[*:1]; C14 diacid = O=C(O)CCCCCCCCCCCCC(=O)*; αMeY = C[C@](N)(Cc1ccc(O)cc1)C(=O)O; αMeL = CC(C)C[C@](C)(N)C(=O)O; Orn = NCCC[C@H](N)C(=O)O; AEEA = NCCOCCOCC(=O)O; Aib = CC(C)(N)C(=O)O

What all share (format): cell-based
The target of one experiment is T1, hGIPR (Homo sapiens, UniProt P48546).
T1 construct: expressed in transfected cells
T1 sequence (P48546 22-466): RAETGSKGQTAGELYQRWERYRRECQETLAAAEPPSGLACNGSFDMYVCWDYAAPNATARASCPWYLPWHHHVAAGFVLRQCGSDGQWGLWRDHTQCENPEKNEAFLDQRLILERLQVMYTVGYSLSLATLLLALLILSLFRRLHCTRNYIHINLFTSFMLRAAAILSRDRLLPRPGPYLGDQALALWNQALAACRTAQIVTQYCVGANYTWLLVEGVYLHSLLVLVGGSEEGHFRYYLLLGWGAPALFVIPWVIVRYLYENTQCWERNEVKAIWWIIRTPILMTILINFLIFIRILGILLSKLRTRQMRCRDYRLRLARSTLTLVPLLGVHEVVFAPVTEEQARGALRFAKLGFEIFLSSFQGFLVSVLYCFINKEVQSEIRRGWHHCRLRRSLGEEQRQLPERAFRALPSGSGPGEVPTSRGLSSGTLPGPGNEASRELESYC
Description: Functional cAMP formation (HTRF) in HEK-293 clonal cells expressing hGIPR, 0.1% bovine casein, without or with 1.0% human serum albumin. As to conditions: for EC50: geometric mean. In short, it runs like this: (§1)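 Cells were stimulated with peptide for 30 min at 37° C, then intracellular cAMP was measured by competitive HTRF (665/620 nm ratio) and converted to nM using a cAMP standard curve. Relative EC50 and Emax came from four-parameter logistic fits of percent maximal response against peptide concentration.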

Another experiment addresses T2, hGCGR (Homo sapiens, UniProt P47871).
T2 construct: expressed in transfected cells
Put plainly: Functional cAMP formation (HTRF) in HEK-293 clonal cells expressing hGCGR, 0.1% bovine casein, without or with 1.0% human serum albumin. In short, it runs like this: as §1

Another experiment concerns the target hGLP-1R (Homo sapiens, UniProt P43220). Put plainly: Functional cAMP formation (HTRF) in HEK-293 clonal cells expressing hGLP-1R, 0.1% bovine casein, without or with 1.0% human serum albumin. Set-up: expressed in transfected cells. As to conditions: for EC50: geometric mean. The essentials: as §1
Setting [1] is: 0.1% bovine casein and 1.0% human serum albumin, 37° C., read-out: hGIPR EC50, nM (SEM, n).
The mark [2] stands for this setting: HEK293, 0.1% bovine casein and 1.0% human serum albumin, 37° C., percent of maximal response to GIP(1-42)NH2, read-out: hGIPR Emax, % ± SEM.
Where [3] appears, read: 0.1% bovine casein and 1.0% human serum albumin, 37° C., geometric mean, read-out: hGCGR EC50, nM (SEM, n).
Setting [4] is: cAMP, incubated at 37° C., 0.1% bovine casein (no human serum albumin), geometric mean, read-out: hGCGR EC50, nM (SEM, n).

Sequence of hGLP-1R (P43220 24-463): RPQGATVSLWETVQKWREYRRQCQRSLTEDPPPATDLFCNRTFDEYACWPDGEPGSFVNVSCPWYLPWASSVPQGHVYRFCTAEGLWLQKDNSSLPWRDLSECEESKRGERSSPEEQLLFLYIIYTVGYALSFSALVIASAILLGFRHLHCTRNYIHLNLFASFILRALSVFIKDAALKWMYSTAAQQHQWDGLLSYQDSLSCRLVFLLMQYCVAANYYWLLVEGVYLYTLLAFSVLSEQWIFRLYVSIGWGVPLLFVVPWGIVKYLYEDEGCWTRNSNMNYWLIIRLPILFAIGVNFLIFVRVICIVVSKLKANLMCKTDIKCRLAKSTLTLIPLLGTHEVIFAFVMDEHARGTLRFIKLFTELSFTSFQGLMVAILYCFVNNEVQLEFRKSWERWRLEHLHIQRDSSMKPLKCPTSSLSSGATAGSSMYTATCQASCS
T2 sequence (P47871 26-477): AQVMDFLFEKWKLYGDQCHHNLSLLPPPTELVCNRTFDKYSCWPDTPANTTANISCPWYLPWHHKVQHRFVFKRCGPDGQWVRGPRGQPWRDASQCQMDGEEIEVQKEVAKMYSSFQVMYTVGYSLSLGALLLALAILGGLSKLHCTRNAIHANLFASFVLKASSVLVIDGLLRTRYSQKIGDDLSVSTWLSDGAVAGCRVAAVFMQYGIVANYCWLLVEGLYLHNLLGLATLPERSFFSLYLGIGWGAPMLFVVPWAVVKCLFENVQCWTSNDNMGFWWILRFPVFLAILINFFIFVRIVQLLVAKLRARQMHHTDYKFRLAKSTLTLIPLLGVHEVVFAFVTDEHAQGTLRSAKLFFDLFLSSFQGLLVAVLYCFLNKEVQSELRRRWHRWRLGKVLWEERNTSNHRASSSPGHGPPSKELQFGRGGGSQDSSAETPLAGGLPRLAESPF

As to `CC[C@H](C)[C@H](NC(=O)[C@H](CC(C)C)NC(=O)[C@](C)(Cc1ccc(O)cc1)NC(=O)[C@@H](CCC(=O)O)NC(=O)[C@@H](NC(=O)[C@H](Cc1ccccc1)NC(=O)[C@H](CCC(=O)O)NC(=O)C(C)(C)NC(=O)[C@H](CCC(N)=O)NC(=O)[C@H](C)NC(=O)[C@H](CCCCNC(=O)COCCOCCNC(=O)COCCOCCNC(=O)CC[C@H](NC(=O)CCCCCCCCCCCCC(=O)O)C(=O)O)NC(=O)[C@H](CCCN)NC(=O)[C@H](CC(=O)O)NC(=O)[C@H](CC(C)C)NC(=O)[C@](C)(CC(C)C)NC(=O)[C@@H](NC(=O)[C@H](CO)NC(=O)[C@H](Cc1ccc(OC)cc1)NC(=O)[C@H](CC(=O)O)NC(=O)[C@H](CO)NC(=O)[C@@H](NC(=O)[C@](C)(Cc1ccccc1F)NC(=O)[C@@H](NC(=O)CNC(=O)[C@H](CCC(=O)O)NC(=O)C(C)(C)NC(=O)[C@@H](N)Cc1ccc(O)cc1)[C@@H](C)O)[C@@H](C)O)[C@@H](C)CC)[C@@H](C)CC)C(=O)N[C@@H](CCC(=O)O)C(=O)NCC(=O)NCC(=O)N[C@@H](CCCCNC(=O)COCCOCCNC(=O)COCCOCCNC(=O)CC[C@H](NC(=O)CCCCCCCCCCCCC(=O)O)C(=O)O)C(=O)N[C@@H](CO)C(=O)N[C@@H](CO)C(=O)NCC(=O)N[C@@H](C)C(=O)N1CCC[C@H]1C(=O)N1CCC[C@H]1C(=O)N1CCC[C@H]1C(=O)N[C@@H](CO)C(N)=O` [Example 58] (H-Y[Aib]EGT[αMePhe(2-F)]TSDY(Me)SI[αMeL]LD[Orn]K([AEEA-AEEA-γGlu-C14 diacid])AQ[Aib]EFI[dE][αMeY]LIEGGK([AEEA-AEEA-γGlu-C14 diacid])SSGAPPPS-NH2), the concentration giving a half-maximal response (EC50) on hGIPR (setting [1]) is 1.12 nM; on hGIPR (cAMP, incubated at 37° C., 0.1% bovine casein (no human serum albumin), read-out: hGIPR EC50, nM (SEM, n)), 0.0158 nM; at hGCGR (setting [3]) it was over 9950 nM; on hGCGR (setting [4]), over 9950 nM; at hGLP-1R (cAMP, incubated at 37° C., 0.1% bovine casein (no human serum albumin), read-out: hGLP-1R EC50, nM (SEM, n)) it was 0.194 nM. Moreover, the Emax at hGIPR (setting [2]) amounted to 92.2 ± 7.4%; on hGIPR (HEK293, percent of maximal response to GIP(1-42)NH2, 37° C., 0.1% bovine casein, arithmetic mean, read-out: hGIPR Emax, % ± SEM) it was 89.2 ± 5.96%.

Consider `CCCC[C@H](NC(=O)[C@H](CC(=O)O)NC(=O)[C@H](CO)NC(=O)[C@@H](NC(=O)[C@](C)(Cc1ccccc1F)NC(=O)[C@@H](NC(=O)CNC(=O)[C@H](CCC(=O)O)NC(=O)C(C)(C)NC(=O)[C@@H](N)Cc1ccc(O)cc1)[C@@H](C)O)[C@@H](C)O)C(=O)N[C@@H](CO)C(=O)N[C@H](C(=O)N[C@@](C)(CC(C)C)C(=O)N[C@@H](CC(C)C)C(=O)N[C@@H](CC(=O)O)C(=O)N[C@@H](CCCN)C(=O)N[C@H](C(=O)N[C@@H](C)C(=O)N[C@@H](CCC(N)=O)C(=O)NC(C)(C)C(=O)N[C@@H](CCCCNC(=O)COCCOCCNC(=O)COCCOCCNC(=O)CC[C@H](NC(=O)CCCCCCCCCOc1ccc(C(=O)O)cc1)C(=O)O)C(=O)N[C@@H](Cc1ccccc1)C(=O)N[C@H](C(=O)N[C@H](CCC(=O)O)C(=O)N[C@@](C)(Cc1ccc(O)cc1)C(=O)N[C@@H](CC(C)C)C(=O)N[C@H](C(=O)N[C@@H](CCCCNC(=O)COCCOCCNC(=O)COCCOCCNC(=O)CC[C@H](NC(=O)CCCCCCCCCOc1ccc(C(=O)O)cc1)C(=O)O)C(=O)NCC(=O)NCC(=O)N1CCC[C@H]1C(=O)N[C@@H](CO)C(=O)N[C@@H](CO)C(=O)NCC(=O)N[C@@H](C)C(=O)N1CCC[C@H]1C(=O)N1CCC[C@H]1C(=O)N1CCC[C@H]1C(=O)N[C@@H](CO)C(N)=O)[C@@H](C)CC)[C@@H](C)CC)[C@@H](C)CC)[C@@H](C)CC` [Example 333], for which the Emax on hGIPR (HEK293, read-out: hGIPR Emax, % ± SEM, cAMP, 37° C., 0.1% bovine casein and 1.0% human serum albumin, percent of maximal response to GIP(1-42)NH2) turned out to be 100%; at hGIPR (HEK293, read-out: hGIPR Emax, % ± SEM, cAMP, 37° C., 0.1% bovine casein, percent of maximal response to GIP(1-42)NH2, arithmetic mean), 109%; on hGLP-1R (HEK293, read-out: hGLP-1R Emax, % ± SEM, cAMP, 37° C., 0.1% bovine casein and 1.0% human serum albumin, percent of maximal response to GLP-1(7-36)NH2) it was 93.3%. Besides, the EC50 on hGIPR (hGIPR EC50, nM (SEM, n), cAMP, 37° C., 0.1% bovine casein (no human serum albumin)) is 0.0062 nM; at hGCGR (hGCGR EC50, nM (SEM, n), cAMP, 37° C., 0.1% bovine casein (no human serum albumin), geometric mean), over 9950 nM; on hGCGR (hGCGR EC50, nM (SEM, n), cAMP, 37° C., 0.1% bovine casein and 1.0% human serum albumin, geometric mean (SEM, n)), over 9950 nM; at hGLP-1R (hGLP-1R EC50, nM (SEM, n), cAMP, 37° C., 0.1% bovine casein (no human serum albumin)), 0.388 nM.

As for `CC[C@H](C)[C@H](NC(=O)[C@H](CCCN)NC(=O)[C@H](CC(=O)O)NC(=O)[C@H](CC(C)C)NC(=O)[C@](C)(CC(C)C)NC(=O)[C@@H](NC(=O)C(C)(C)NC(=O)[C@H](Cc1ccc(O)cc1)NC(=O)[C@H](CC(=O)O)NC(=O)[C@H](CO)NC(=O)[C@@H](NC(=O)[C@](C)(Cc1ccccc1F)NC(=O)[C@@H](NC(=O)CNC(=O)[C@H](CCC(=O)O)NC(=O)C(C)(C)NC(=O)[C@@H](N)Cc1ccc(O)cc1)[C@@H](C)O)[C@@H](C)O)[C@@H](C)CC)C(=O)N[C@@H](C)C(=O)N[C@@H](CCC(N)=O)C(=O)NC(C)(C)C(=O)N[C@@H](CCC(=O)O)C(=O)N[C@@H](Cc1ccccc1)C(=O)N[C@H](C(=O)N[C@@H](CCCCNC(=O)COCCOCCNC(=O)CC[C@H](NC(=O)CCCCCCCCCCCCC(=O)O)C(=O)O)C(=O)N[C@@](C)(Cc1ccc(O)cc1)C(=O)N[C@@H](CC(C)C)C(=O)N[C@H](C(=O)N[C@@H](CCCCNC(=O)COCCOCCNC(=O)CC[C@H](NC(=O)CCCCCCCCCCCCC(=O)O)C(=O)O)C(=O)NCC(=O)NCC(=O)N1CCC[C@H]1C(=O)N[C@@H](CO)C(=O)N[C@@H](CO)C(=O)NCC(=O)N[C@@H](C)C(=O)N1CCC[C@H]1C(=O)N1CCC[C@H]1C(=O)N1CCC[C@H]1C(=O)N[C@@H](CO)C(N)=O)[C@@H](C)CC)[C@@H](C)CC` [Example 369], the EC50 at hGIPR (cAMP, 37° C., 0.1% bovine casein (no human serum albumin), read-out: hGIPR EC50, nM (SEM, n)) is 0.037 nM; on hGCGR (cAMP, 37° C., 0.1% bovine casein (no human serum albumin), geometric mean, read-out: hGCGR EC50, nM (SEM, n)) it was over 9950 nM; on hGLP-1R (cAMP, 37° C., 0.1% bovine casein (no human serum albumin), read-out: hGLP-1R EC50, nM (SEM, n)), 0.555 nM.

Take `CC[C@H](C)[C@H](NC(=O)[C@H](CCCN)NC(=O)[C@H](CC(=O)O)NC(=O)[C@H](CC(C)C)NC(=O)[C@](C)(CC(C)C)NC(=O)[C@@H](NC(=O)[C@H](CO)NC(=O)[C@H](Cc1ccncc1)NC(=O)[C@H](CC(=O)O)NC(=O)[C@H](CO)NC(=O)[C@@H](NC(=O)[C@](C)(Cc1ccccc1F)NC(=O)[C@@H](NC(=O)CNC(=O)[C@H](CCC(=O)O)NC(=O)C(C)(C)NC(=O)[C@@H](N)Cc1ccc(O)cc1)[C@@H](C)O)[C@@H](C)O)[C@@H](C)CC)C(=O)N[C@@H](C)C(=O)N[C@@H](CCC(N)=O)C(=O)NC(C)(C)C(=O)N[C@@H](CCCCNC(=O)COCCOCCNC(=O)COCCOCCNC(=O)CC[C@H](NC(=O)CCCc1ccc(C(C)(C)C)cc1)C(=O)O)C(=O)N[C@@H](Cc1ccccc1)C(=O)N[C@H](C(=O)N[C@H](CCC(=O)O)C(=O)N[C@@](C)(Cc1ccc(O)cc1)C(=O)N[C@@H](CC(C)C)C(=O)N[C@H](C(=O)N[C@@H](CCCCNC(=O)COCCOCCNC(=O)COCCOCCNC(=O)CC[C@H](NC(=O)CCCc1ccc(C(C)(C)C)cc1)C(=O)O)C(=O)NCC(=O)NCC(=O)N1CCC[C@H]1C(=O)N[C@@H](CO)C(=O)N[C@@H](CO)C(=O)NCC(=O)N[C@@H](C)C(=O)N1CCC[C@H]1C(=O)N1CCC[C@H]1C(=O)N1CCC[C@H]1C(=O)N[C@@H](CO)C(N)=O)[C@@H](C)CC)[C@@H](C)CC` [Example 204]: the concentration for a half-maximal effect (EC50) was 0.341 nM at hGIPR (setting [1]); over 9950 nM on hGCGR (setting [3]); over 9950 nM on hGCGR (setting [4]); 2.44 nM on hGLP-1R (0.1% bovine casein and 1.0% human serum albumin, 37° C., read-out: hGLP-1R EC50, nM (SEM, n)). For the same compound, the Emax on hGIPR (setting [2]) stood at 83.3%; at hGLP-1R (HEK293, percent of maximal response to GLP-1(7-36)NH2, 37° C., 0.1% bovine casein, arithmetic mean, read-out: hGLP-1R Emax, % ± SEM), 126%.
